Assay results published in ChEMBL document CHEMBL2034891, “Discovery, design and synthesis of Y-shaped peroxisome proliferator-activated receptor δ agonists as potent anti-obesity agents in vivo” (Eur J Med Chem, 2012).
Blank lines part the entries; values can stand above or below the molecule they belong to. Activity calls are given as the source filed them. The rule behind the calls is not given here.

Legend:
[1] = molecular target: T1, Peroxisome proliferator-activated receptor alpha (Homo sapiens, UniProt Q07869); assay: Transactivation activity at human PPARalpha expressed in african green monkey CV1 cells after 24 hrs by luciferase reporter gene assay; assay type: cell-based, CV-1
T1 sequence (Q07869 whole entry): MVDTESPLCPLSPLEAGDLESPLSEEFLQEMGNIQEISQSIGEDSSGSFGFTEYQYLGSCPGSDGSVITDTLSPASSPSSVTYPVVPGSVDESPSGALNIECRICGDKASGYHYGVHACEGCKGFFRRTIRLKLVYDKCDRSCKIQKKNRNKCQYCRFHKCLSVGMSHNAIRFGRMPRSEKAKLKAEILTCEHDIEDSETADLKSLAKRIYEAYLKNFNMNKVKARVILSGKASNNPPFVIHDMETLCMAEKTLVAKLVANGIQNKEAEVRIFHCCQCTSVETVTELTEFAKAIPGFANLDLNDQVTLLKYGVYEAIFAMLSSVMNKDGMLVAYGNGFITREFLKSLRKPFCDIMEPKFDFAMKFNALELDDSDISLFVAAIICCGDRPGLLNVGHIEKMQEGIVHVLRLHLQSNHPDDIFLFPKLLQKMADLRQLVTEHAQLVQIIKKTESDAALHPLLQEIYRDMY

[2] = molecular target: T2, Peroxisome proliferator-activated receptor gamma (Homo sapiens, UniProt P37231); assay: Transactivation activity at human PPARgamma expressed in african green monkey CV1 cells after 24 hrs by luciferase reporter gene assay; assay type: cell-based, CV-1
T2 sequence (P37231 whole entry): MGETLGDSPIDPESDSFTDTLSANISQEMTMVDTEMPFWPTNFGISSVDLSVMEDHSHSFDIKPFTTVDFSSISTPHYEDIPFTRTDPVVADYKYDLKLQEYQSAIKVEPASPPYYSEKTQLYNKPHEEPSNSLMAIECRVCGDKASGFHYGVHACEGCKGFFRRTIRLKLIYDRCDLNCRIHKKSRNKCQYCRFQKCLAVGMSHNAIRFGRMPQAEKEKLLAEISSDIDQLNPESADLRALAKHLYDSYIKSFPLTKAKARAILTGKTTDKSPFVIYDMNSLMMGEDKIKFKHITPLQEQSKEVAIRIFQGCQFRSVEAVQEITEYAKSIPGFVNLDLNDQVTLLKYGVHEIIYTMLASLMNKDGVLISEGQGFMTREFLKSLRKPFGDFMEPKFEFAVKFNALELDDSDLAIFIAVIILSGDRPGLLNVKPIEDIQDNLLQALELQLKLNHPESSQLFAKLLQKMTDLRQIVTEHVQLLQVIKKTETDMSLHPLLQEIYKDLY

[3] = molecular target: T3, Peroxisome proliferator-activated receptor delta (Homo sapiens, UniProt Q03181); assay: Transactivation activity at human PPARdelta expressed in african green monkey CV1 cells after 24 hrs by luciferase reporter gene assay; assay type: cell-based, CV-1
T3 sequence (Q03181 whole entry): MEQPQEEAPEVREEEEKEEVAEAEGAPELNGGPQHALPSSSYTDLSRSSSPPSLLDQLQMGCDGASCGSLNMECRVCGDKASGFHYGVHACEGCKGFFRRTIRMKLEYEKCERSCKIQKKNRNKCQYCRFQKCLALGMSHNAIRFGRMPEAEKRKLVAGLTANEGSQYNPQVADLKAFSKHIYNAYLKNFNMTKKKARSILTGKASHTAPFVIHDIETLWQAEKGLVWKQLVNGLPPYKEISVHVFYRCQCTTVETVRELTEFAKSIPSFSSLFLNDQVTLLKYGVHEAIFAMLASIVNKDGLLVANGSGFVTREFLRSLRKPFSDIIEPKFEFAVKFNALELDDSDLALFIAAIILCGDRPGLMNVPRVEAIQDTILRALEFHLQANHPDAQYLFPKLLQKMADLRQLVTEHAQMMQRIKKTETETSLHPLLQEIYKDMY

Homo sapiens = species on record: Homo sapiens; assay: Selectivity ratio of EC50 for human PPARalpha to EC50 for human PPARdelta
Mus musculus [4] = assay: Antiobesity activity in high-fat diet fed C57BL/6 mouse assessed as decrease in body weight gain at 10 mg/kg, po QD relative to control; assay type: functional; design: scale not given: the % may be the effect or the level left
[5] = Terminal half life in ICR mouse at 10 mg/kg, po; assay type: ADME, organism-based; design: dose 10 mg/kg, route oral; settings: in vivo, read-out: beta t1/2 (converted)
[6] = Tmax in ICR mouse at 10 mg/kg, po; assay type: ADME, organism-based; design: dose 10 mg/kg, route oral; settings: in vivo
[7] = Cmax in ICR mouse at 10 mg/kg, po; assay type: ADME, organism-based; design: dose 10 mg/kg, route oral; settings: in vivo
[8] = AUC in ICR mouse at 10 mg/kg, po; assay type: ADME, organism-based; design: dose 10 mg/kg, route oral; settings: plasma
Mus musculus [9] = assay: Dose normalized AUC in ICR mouse at 10 mg/kg, po; assay type: ADME, organism-based; design: dose 10 mg/kg, route oral; settings: in vivo
Mus musculus [10] = assay: Volume of distribution at steady state in ICR mouse at 10 mg/kg, po; assay type: ADME, organism-based; design: dose 10 mg/kg, route oral; settings: in vivo
[11] = Clearance in ICR mouse at 10 mg/kg, po; assay type: ADME, organism-based; design: dose 10 mg/kg, route oral; settings: in vivo
Mus musculus [12] = assay: AUMC in ICR mouse at 10 mg/kg, po; assay type: ADME, organism-based; design: dose 10 mg/kg, route oral; settings: in vivo
[13] = Mean residence time in ICR mouse at 10 mg/kg, po; assay type: ADME, organism-based; design: dose 10 mg/kg, route oral; settings: in vivo
[14] = Terminal half life in ICR mouse at 1 mg/kg, iv; assay type: ADME, organism-based; design: dose 1 mg/kg, route intravenous; settings: in vivo, read-out: beta t1/2 (converted)
[15] = Tmax in ICR mouse at 1 mg/kg, iv; assay type: ADME, organism-based; design: dose 1 mg/kg, route intravenous; settings: in vivo
[16] = Cmax in ICR mouse at 1 mg/kg, iv; assay type: ADME, organism-based; design: dose 1 mg/kg, route intravenous; settings: in vivo
[17] = AUC in ICR mouse at 1 mg/kg, iv; assay type: ADME, organism-based; design: dose 1 mg/kg, route intravenous; settings: plasma
Mus musculus [18] = assay: Dose normalized AUC in ICR mouse at 1 mg/kg, iv; assay type: ADME, organism-based; design: dose 1 mg/kg, route intravenous; settings: in vivo
[19] = Volume of distribution at steady state in ICR mouse at 1 mg/kg, iv; assay type: ADME, organism-based; design: dose 1 mg/kg, route intravenous; settings: in vivo, read-out: Vdss
[20] = Clearance in ICR mouse at 1 mg/kg, iv; assay type: ADME, organism-based; design: dose 1 mg/kg, route intravenous; settings: in vivo
Mus musculus [21] = assay: AUMC in ICR mouse at 1 mg/kg, iv; assay type: ADME, organism-based; design: dose 1 mg/kg, route intravenous; settings: in vivo
[22] = Mean residence time in ICR mouse at 1 mg/kg, iv; assay type: ADME, organism-based; design: dose 1 mg/kg, route intravenous; settings: in vivo
[23] = Oral bioavailability in ICR mouse at 10 mg/kg; assay type: ADME, organism-based; settings: in vivo
Mus musculus [24] = assay: Antiobesity activity in high-fat diet fed C57BL/6 mouse assessed as increase in body weight at 10 mg/kg, po QD measured after 78 days (reference value: 102%); assay type: functional
Mus musculus [25] = assay: Antiobesity activity in high-fat diet fed C57BL/6 mouse assessed as decrease in serum triglyceride level at 10 mg/kg, po QD relative to vehicle-treated control; assay type: functional; design: scale not given: the % may be the effect or the level left
Mus musculus [26] = assay: Antiobesity activity in high-fat diet fed C57BL/6 mouse assessed as decrease in serum free fatty acid level at 10 mg/kg, po QD relative to vehicle-treated control; assay type: functional; design: scale not given: the % may be the effect or the level left
Mus musculus [27] = assay: Antiobesity activity in high-fat diet fed C57BL/6 mouse assessed as absence of fatty liver at 10 mg/kg, po QD hematoxylin and eosin staining-based histological analysis; assay type: functional, organism-based; design: dose 10 mg/kg
Mus musculus [28] = assay: Antiobesity activity in high-fat diet fed C57BL/6 mouse assessed as decrease in lipid accumulation on brown adipose tissue at 10 mg/kg, po QD hematoxylin and eosin staining-based histological analysis; assay type: functional, organism-based; design: dose 10 mg/kg
Mus musculus [29] = assay: Antiobesity activity in high-fat diet fed C57BL/6 mouse assessed as decrease in lipid accumulation on white adipose tissue at 10 mg/kg, po QD hematoxylin and eosin staining-based histological analysis; assay type: functional, organism-based; design: dose 10 mg/kg
Mus musculus [30] = assay: Toxicity in high-fat diet fed C57BL/6 mouse assessed as decrease in food intake at 10 mg/kg, po QD relative to control; assay type: organism-based; design: dose 10 mg/kg, route oral; settings: in vivo
[31] = molecular target: T3, Peroxisome proliferator-activated receptor delta; assay: Binding affinity at human GST-tagged PPARdelta ligand binding domain after 1 hr by time-resolved FRET analysis

SMILES: Cc1cc(SC(Cc2c(F)c(F)c(F)c(F)c2F)c2sc(-c3ccc(C(F)(F)F)cc3)nc2C)ccc1OCC(=O)O (stereo unspecified)
EC50 [1]: > 10 µM
EC50 [2]: > 10 µM
EC50 [3]: 0.0081 µM
Ratio EC50 (Homo sapiens): 10000

SMILES: Cc1cc(SC(Cc2c(F)cccc2F)c2sc(-c3ccc(C(F)(F)F)cc3)nc2C)ccc1OCC(=O)O (stereo unspecified)
EC50 [1]: > 10 µM
EC50 [2]: > 10 µM
EC50 [3]: 0.0021 µM
Ratio EC50 (Homo sapiens): 10000
Activity (Mus musculus [4]): 35%

SMILES: Cc1cc(SC(Cc2c(F)cccc2C(F)(F)F)c2sc(-c3ccc(C(F)(F)F)cc3)nc2C)ccc1OCC(=O)O (stereo unspecified)
EC50 [1]: > 10 µM
EC50 [2]: > 10 µM
EC50 [3]: 0.0012 µM
Ratio EC50 (Homo sapiens): 10000
Activity (Mus musculus [4]): 24%

SMILES: Cc1cc(SC(Cc2c3ccccc3cc3ccccc23)c2sc(-c3ccc(C(F)(F)F)cc3)nc2C)ccc1OCC(=O)O (stereo unspecified)
EC50 [1]: > 10 µM
EC50 [2]: > 10 µM

SMILES: Cc1cc(SC(Cc2ccc([N+](=O)[O-])cc2)c2sc(-c3ccc(C(F)(F)F)cc3)nc2C)ccc1OCC(=O)O (stereo unspecified)
EC50 [1]: > 10 µM
EC50 [2]: > 10 µM
EC50 [3]: 0.06 µM

SMILES: Cc1cc(SC(Cc2ccc(-c3ccccc3)cc2)c2sc(-c3ccc(C(F)(F)F)cc3)nc2C)ccc1OCC(=O)O (stereo unspecified)
EC50 [1]: > 10 µM
EC50 [2]: > 10 µM
EC50 [3]: 0.0044 µM

SMILES: Cc1cc(SC(Cc2ccc(F)cc2F)c2sc(-c3ccc(C(F)(F)F)cc3)nc2C)ccc1OCC(=O)O (stereo unspecified)
EC50 [1]: > 10 µM
EC50 [2]: > 10 µM
EC50 [3]: 0.0046 µM
Ratio EC50 (Homo sapiens): 10000

SMILES: Cc1cc(SC(Cc2cc(F)ccc2F)c2sc(-c3ccc(C(F)(F)F)cc3)nc2C)ccc1OCC(=O)O (stereo unspecified)
EC50 [1]: > 10 µM
EC50 [2]: > 10 µM
EC50 [3]: 0.0167 µM
Ratio EC50 (Homo sapiens): 10000

The next lines start with results.

EC50 [1]: > 10 µM
EC50 [2]: > 10 µM
EC50 [3]: 0.0026 µM
SMILES: Cc1cc(SC(CCc2ccccc2)c2sc(-c3ccc(C(F)(F)F)cc3)nc2C)ccc1OCC(=O)O (stereo unspecified)

EC50 [1]: > 10 µM
EC50 [2]: > 10 µM
SMILES: Cc1cc(SC(CCCCc2ccccc2)c2sc(-c3ccc(C(F)(F)F)cc3)nc2C)ccc1OCC(=O)O (stereo unspecified)

EC50 [1]: > 10 µM
EC50 [2]: > 10 µM
EC50 [3]: 0.49 µM
SMILES: Cc1cc(SC(Cc2cccc3ccccc23)c2sc(-c3ccc(C(F)(F)F)cc3)nc2C)ccc1OCC(=O)O (stereo unspecified)

EC50 [1]: > 10 µM
EC50 [2]: > 10 µM
SMILES: Cc1cc(SC(CCCCCc2ccccc2)c2sc(-c3ccc(C(F)(F)F)cc3)nc2C)ccc1OCC(=O)O (stereo unspecified)

EC50 [1]: > 10 µM
EC50 [2]: > 10 µM
EC50 [3]: 0.0016 µM
Ratio EC50 (Homo sapiens): 10000
half-life [5]: 5.27 h
Tmax [6]: 2.75 h
Cmax [7]: 37900 ng/mL
AUC [8]: 357 µg·h/mL
AUC/dose (Mus musculus [9]): 35.7 kg·µg·h/mL/mg
Vdss (Mus musculus [10]): 0.212 L/kg
CL/F [11]: 0.47 mL/min/kg
AUMC (Mus musculus [12]): 3340 hr.hr.ug/ml
MRT [13]: 9.32 h
half-life [14]: 3.69 h
Tmax [15]: 0.33 h
Cmax [16]: 8980 ng/mL
AUC [17]: 40.6 µg·h/mL
AUC/dose (Mus musculus [18]): 40.6 kg·µg·h/mL/mg
Vd [19]: 0.131 L/kg
clearance [20]: 0.41 mL/min/kg
AUMC (Mus musculus [21]): 243 hr.hr.ug/ml
MRT [22]: 5.98 h
bioavailability [23]: 88%
EC50 [31]: 0.013 µM
SMILES: Cc1cc(SC(Cc2ccccc2)c2sc(-c3ccc(C(F)(F)F)cc3)nc2C)ccc1OCC(=O)O (stereo unspecified)
Activity (Mus musculus [24]): 60%
Activity (Mus musculus [25]): 29%
Activity (Mus musculus [26]): 26%
Activity (Mus musculus [27]): Active
Activity (Mus musculus [28]): Active
Activity (Mus musculus [29]): Active
Activity (Mus musculus [30]): Non-toxic
